# Entries after “also recorded” stand apart in the source; their conditions may differ.
# How the values were obtained:
# AT1 receptor = target: T1, AT1 receptor (Rattus norvegicus, UniProt P25095); assay: Rat liver membrane AT1 receptor binding assay ([125I]-Ang II displacement); conditions: displacement of [125I]-Ang II, rat liver membranes; means ± SE, triplicate; read-out: Ki (nM) AT1R
# T1 construct: Rat liver membranes were prepared according to the method of Dudley et al; from tissue; host or cells: rat liver membranes
# T1 sequence (P25095 whole entry): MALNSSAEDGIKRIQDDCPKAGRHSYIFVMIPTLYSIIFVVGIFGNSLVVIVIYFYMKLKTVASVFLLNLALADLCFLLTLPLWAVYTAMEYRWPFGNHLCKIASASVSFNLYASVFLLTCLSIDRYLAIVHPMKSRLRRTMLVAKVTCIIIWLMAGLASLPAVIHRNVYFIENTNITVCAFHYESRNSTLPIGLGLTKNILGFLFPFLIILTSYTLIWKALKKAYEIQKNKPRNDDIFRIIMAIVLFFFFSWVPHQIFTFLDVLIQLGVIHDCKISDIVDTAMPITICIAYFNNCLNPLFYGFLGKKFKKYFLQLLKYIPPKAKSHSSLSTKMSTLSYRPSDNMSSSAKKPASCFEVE
# Method: The target compounds were evaluated for AT1 receptor binding affinity by displacement of [^125I]-Ang II from the AT1 receptor in rat liver membranes. The radio-iodinated AT2 receptor selective ligand [^125I]-CGP42112 was used to study AT2 receptor binding affinity in HEK-293 cells (HEK293-hAT2R) ([Dudley et al., 1990]; [Whitebread et al., 1991]). All of above methods were widely accepted and used to evaluate the binding activity of AT1 and AT2 receptors.
# Rat liver membranes were prepared according to the method of Dudley et al ([Dudley et al., 1990]). After HEK-293 cells were transfected with the AT2 receptor, a lysis buffer was used to separate the cell membrane of HEK-293 cells ([Grieger et al., 2016]), using 27-G Resuspend. The lysis solution was mixed and centrifuged at 12,000 g for 10 min at 4°C. Details are shown in the Supplementary Material.
# 3. Radioligand binding assay steps
# 3.1 Rat Liver Membrane AT1 Receptor Binding Assay.
# Rat liver membranes were prepared according to the method of Dudley et al[1].
# Binding of [125I]-Ang II to membranes was conducted in a final volume of 0.5 mL containing 50 mM Tris-HCl (pH 7.4), 100 mM NaCl, 10 mM MgCl2, 1 mM EDTA, 0.025% bacitracin, 0.2% BSA (bovine serum albumin), liver homogenate corresponding to 5 mg of the original tissue weight, [125I]-Ang II (80000-85 000 cpm, 0.03 nM), and variable concentrations of test substance. Samples were incubated at 25 ℃ for 2 h, and binding was terminated by filtration through Whatman GF/B glass-fiber filter sheets, which had been presoaked overnight with 0.3 % polyethylamine, using a Brandel cell harvester. The filterswere washed with 3×3 mL of Tris-HCl (pH 7.4) and transferred to tubes. The radioactivity was measured in a γ-counter. The characteristics of the Ang II binding AT1receptor was determined by using six different concentrations (0.03-5 nmol/L) of the labeled [125I]-Ang II.
# Nonspecific binding was determined in the presence of 1 µM Ang II.The specific binding was determined by subtracting the nonspecific binding from the total bound [125I]-Ang II.The apparent dissociation constant Ki values were calculated from IC50 values using the Cheng-Prusoff equation. […]
# (§1) one-site fit.All determinations were performed in triplicate. […]
# AT2 receptor [1] = assay: Neurite outgrowth assay with NG108-15 cells (AT2 receptor function assay); conditions: for Function (AT2 receptor agonist / antagonist): 3-day treatment, 10 or 100 nM, with or without PD-123,319 (10 uM) or Ang II; for evidence of cell death: dilution series 1 pM to 1 uM, seen only at the highest concentration
# Method: The ratio of cell neurite outgrowth was used to evaluate, and the details are shown in the Supplementary Material.
# NG108-15 cells (China Center for Type Culture Collection CCTCC) were used to study the in vitro morphological effects. In their undifferentiated state, neuroblastoma × glioma hybrid NG108-15 cells havea rounded shape and divide actively. The cells were cultured from passage 18–25 in Dulbecco’s modified Eagle’s medium (DMEM, Gibco BRL, Thermo Fisher Technology (China) Co., Ltd, China) with 10% fetal bovine serum (FBS, Gibco), HAT supplement and 50 mg L^−1 gentamycin at 37°C in 75 cm^2 Nunclon Delta flasks in a humidified atmosphere of 95% air and 5% CO2, as previously described ([Buisson et al., 1992]). Subcultures were performed at subconfluency. Under these conditions, cells express mainly the AT2 receptor subtype ([Whitebread et al., 1991]). Cells were treated during 3 days, once a day (first treatment 24 h after plating), and micrographs were taken on the fourth day. The details of experimental grouping and administration method are shown in the Supplementary Material. […]
# 4. NG108-15 cell experiment steps […]
# peptidic AT2 receptor agonist CGP-42112A induces neurite outgrowth. The […]
# plated as described in the Experimental Section, and adequate test concentrations for […]
# each compound were determined by testing a dilution series of each compound […]
# ranging from 1 pM to 1 uM.
# The chemicals used in the present study were obtained from the following sources: Dulbecco’s modified Eagle’s medium (DMEM), heat-inactivated fetal bovine serum (FBS), HAT supplement (hypoxanthine, aminopterin, thymidine), gentamycin from Gibco BRL (Burlington, Ontario, Canada), and Ang II from MedChemExpress
# AT2 receptor [2] = target: T2, AT2 receptor (Homo sapiens, UniProt P50052); assay: HEK-293 cell AT2 receptor binding assay ([125I]-CGP42112 displacement, HEK293-hAT2R)
# T2 construct: expressed in transfected cells; host or cells: HEK-293
# T2 sequence (P50052 1-363): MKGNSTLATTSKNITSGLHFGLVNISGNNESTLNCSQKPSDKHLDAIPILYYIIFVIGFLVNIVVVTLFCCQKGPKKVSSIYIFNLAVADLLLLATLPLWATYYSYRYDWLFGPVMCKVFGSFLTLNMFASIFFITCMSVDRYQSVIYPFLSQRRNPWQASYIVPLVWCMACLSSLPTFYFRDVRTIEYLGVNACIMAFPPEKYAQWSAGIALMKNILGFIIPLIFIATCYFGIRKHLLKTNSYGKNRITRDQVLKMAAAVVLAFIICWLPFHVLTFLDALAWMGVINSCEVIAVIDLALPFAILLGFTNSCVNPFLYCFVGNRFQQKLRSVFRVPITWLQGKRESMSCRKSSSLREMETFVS
# Method: All of above methods were widely accepted and used to evaluate the binding activity of AT1 and AT2 receptors.
# The lysis solution was mixed and centrifuged at 12,000 g for 10 min at 4°C. Details are shown in the Supplementary Material.
# After HEK-293 cells were transfected with AT2 receptor, lysis buffer (150 mM NaCl, 0.1% Triton X-100, 50 mM Tris-HCl, 1 mM EDTA, protease inhibitor) was used to separate the cell membrane of HEK-293 cells[2],using 27-G Resuspend and mix the lysis solution, and centrifuge at 12,000 g for 10 minutes at 4 °C. The supernatant was collected and centrifuged for a further 60 minutes. The precipitated membrane extracts were buffered (150 mM NaCl, 10 mM MgCl2, 0.5 % SDS, 1 % Triton X-100, 50 mM Tris-Cl, 1 mM EDTA, protease inhibitor ) for resuspension. […]
# mL containing 50 mM Tris-HCl (pH 7.4), 100 mM NaCl, 10 mM MgCl2, 1 mM […]
# cpm, 0.03 nM), and variable concentrations of test substance. Samples were incubated at 25 ℃ for 2 h, and binding was terminated by filtration through Whatman GF/B glass-fiber filter sheets, which had been presoaked overnight with 0.3 % polyethylamine, using a Brandel cell harvester. The filterswere washed with 3×3 mL of Tris-HCl (pH 7.4) and transferred to tubes. The radioactivity was measured in a γ-counter. The characteristics of the Ang II binding AT1 receptor was determined by […]
# Nonspecific binding was determined in the presence of 1 µM Ang II.The specific binding was determined by subtracting the nonspecific binding from the total bound The apparent dissociation constant Ki values were calculated from IC50 values using the Cheng-Prusoff equation. […]
# as §1
# AT2R = conditions: Figure 5, tetrahydroisoquinoline antagonists, ref Smith et al., 2013, Rice et al., 2014, Smith and Muralidharan, 2015, 2016; cited from earlier work
Structure (SMILES),Ki (AT1 receptor),Function (AT2 receptor agonist / antagonist) (AT2 receptor [1]),evidence of cell death (AT2 receptor [1]),Ki (AT2 receptor [2]),Ki (AT2R)
"CCCCc1ccc(S(=O)(=O)NC(=O)OC(C)C)c(-c2cccc(Cn3cncn3)c2)c1 [8h, Isopropyl((3'-((1H-1,2,4-triazol-1-yl)methyl)-5-butyl-[1,1′-biphenyl]-2-yl)sulfonyl)carbamate]",1505 ± 1.11 nM,antagonistic activity; also recorded: antagonist activity,evidence of cell death,82.9 ± 1.19 nM,
"CCCCOc1ccc(S(=O)(=O)NC(=O)OCC(C)C)c(-c2cccc(Cn3cncn3)c2)c1 [8k, Isobutyl((3'-((1H-1,2,4-triazol-1-yl)methyl)-5-butoxy-[1,1′-biphenyl]-2-yl)sulfonyl)carbamate]",775 ± 1.08 nM,antagonistic activity; also recorded: AT2R antagonist; also recorded: antagonist activity,,712.5 ± 1.17 nM,
COc1ccc(Cn2cnc3c2C[C@@H](C(=O)O)N(C(=O)C(c2ccccc2)c2ccccc2)C3)cc1C [EMA300],,,,,28 nM
"CCCCc1ccc(S(=O)(=O)NC(=O)OC(C)C)c(-c2cccc(Cn3cccn3)c2)c1 [9h, Isopropyl((3'-((1H-pyrazol-1-yl)methyl)-5-butyl-[1,1′-biphenyl]-2-yl)sulfonyl)carbamate]",1723 ± 1.07 nM,antagonistic activity; also recorded: Antagonist,,138 ± 1.34 nM,
"CC(C)Cc1ccc(S(=O)(=O)NC(=O)OC(C)C)c(-c2cccc(Cn3cncn3)c2)c1 [8d, Isopropyl((3’-((1H-1,2,4-triazol-1-yl)methyl)-5-isobutyl-[1,1′-biphenyl]-2-yl)sulfonyl)carbamate]",1786 ± 1.37 nM,antagonistic activity; also recorded: antagonist activity,evidence of cell death,116 ± 1.18 nM,
"CCCCOC(=O)NS(=O)(=O)c1ccc(OCCCC)cc1-c1cccc(Cn2cncn2)c1 [8j, Butyl((3'-((1H-1,2,4-triazol-1-yl)methyl)-5-butoxy-[1,1′-biphenyl]-2-yl)sulfonyl)carbamate]",889.3 ± 1.24 nM,agonistic activity; also recorded: agonist activity; also recorded: AT2R agonist,,620.1 ± 1.27 nM,
"CCCCOc1ccc(S(=O)(=O)NC(=O)CCCC)c(-c2cccc(Cn3cncn3)c2)c1 [8i, N-((3'-((1H-1,2,4-triazol-1-yl)methyl)-5-butoxy-[1,1′-biphenyl]-2-yl)sulfonyl)pentanamide]",1250 ± 1.12 nM,antagonistic activity; also recorded: AT2R antagonist; also recorded: antagonist activity,,199.6 ± 1.17 nM,
